Data set [1] has as its system cervical cancer cell lines (Hela cells). Description: In vitro antitumor activity, MTT method. The conditions noted are these: for SI = CC50 (normal cell line L-02)/IC50 (tumor cell line): Hela cell line vs L-02; for pIC50: Homo sapiens, read-out: Cytotoxic Activity IC50. It is filed as cell-based. On the procedure: (§1) Cell lines and subculture of cells: The following five tumor cell lines were used for activity test human colon cancer cell lines (HCT-116 cells), human hepatoma cell lines (HepG2 cells), human breast cancer cell lines (MCF-7 cells), cervical cancer cell lines (Hela cells), human peripheral blood leukemia T cell lines (Jurkat cells), and human normal liver cell lines (L-02 cells), of which MCF-7, HepG2, Hela, and L-02 cell lines were tested using the MTT model; HCT-116 cell lines were tested using the SRB model. All of the cells were subcultured in a 10% FBS-containing RPMI-1640 medium in an incubator charged with 5% carbon dioxide at 37° C.
(§2) MTT method: Dehydrogenase in mitochondria in live cells was capable of metabolizing yellow bromized 3-(4,5-dimethylthiazole)-2,5-diphenyltetrazolium into ianthinus water-insoluble formazan, and an amount of formazan could be determined by measuring the absorbance thereof with a microplate reader. Since the amount of formazan was directly proportional to the number of live cells, the number of live cells could be determined from the absorbance to learn about the drug's capability of inhibiting or killing tumor cells. […] The cell suspension was inoculated to a 96-well plate at 100 μL per well, and cultured at 37° C. for 24 hours. Thereafter, 100 μL of the sample solutions at different concentrations were added to respective wells and continued to be cultured for 72 hours. Then, 20 μL of MTT-containing IPMI-1640 solution ([…]) was added. After further cultivation for 4 hours, the culture solutions were slowly decanted and 150 μL of DMSO was added to dissolve the formazan, and the absorbance was measured at a wavelength of 540 nm. […] The half inhibitory concentration against cancer cells (IC50) and the half inhibitory concentration against normal cells (CC50) were determined.
(§3) Selection Index (SI) is the ratio of the CC50 value of a test sample inhibiting the growth of normal cell lines to the IC50 value of the test sample inhibiting tumor cell proliferation, which reflects the selectivity and safety of the sample.
(§4) SI=CC50(normal cell line L-02)/IC50(tumor cell line) Equation: […]

The subject of data set [2] is human hepatoma cell lines (HepG2 cells). Description: In vitro antitumor activity, MTT method. The conditions noted are these: for SI = CC50 (normal cell line L-02)/IC50 (tumor cell line): HepG2 cell line vs L-02; for pIC50: Homo sapiens, read-out: Cytotoxic Activity IC50. It counts as cell-based. On the procedure:
as §1, §2, §3, §4
A general note: Tetrazolium dyes change colour on reduction, which living cells bring about.

The subject of data set [3] is human peripheral blood leukemia T cell lines (Jurkat cells). Nature of the data set: In vitro antitumor activity, Jurkat cells. It is filed as cell-based. The conditions noted are these: for pIC50: Homo sapiens, read-out: Cytotoxic Activity IC50; for SI = CC50 (normal cell line L-02)/IC50 (tumor cell line): Jurkat cell line vs L-02. Here is the method:
as §1, §3, §4

Data set [4] is described as follows: Toxicity to normal cells, MTT method. It counts as cell-based. The conditions noted are these: human, L-02 cell line. On the procedure: as §1, §2
Data set [5] concerns human colon cancer cell lines (HCT-116 cells). Description: In vitro antitumor activity, SRB method. It counts as cell-based. The settings on record: for SI = CC50 (normal cell line L-02)/IC50 (tumor cell line): HCT-116 cell line vs L-02; for pIC50: Homo sapiens, read-out: Cytotoxic Activity IC50. Here is the method:
as §1
SRB method: According to the cell growth rate, tumor cells at the logarithmic phase (medium: RPMI-1640 medium containing 10% newborn fetal bovine serum (FBS); cell density: 3×10^4 cells/mL) were inoculated into a 96-well culture plate at 180 μL/well, and subjected to adherent growth for 24 hours at 37° C. under 5% CO2. Subsequently, a test sample was added at 20 μL/well, and four duplicated wells were provided at each concentration. […] The culture solution was decanted, and the cells were fixed with 10% cold trichloroacetic acid (TCA), allowed to stand at 4° C. for 1 hour, and then washed 5 times with distilled water and dried in the air. Thereafter, 100 μL/well of a 4 mg/ml solution of sulforhodamine B (SRB, Sigma) formulated by 1% glacial acetic acid was added, and the mixture was stained at a room temperature for 15 minutes, and the supernatant was removed, washed 5 times with 1% acetic acid, and dried in the air. Finally, 150 μL/well of Tris solution was added, and the absorbance (OD value) was measured with a microplate reader at a wavelength of 540 nm. […] The half inhibitory concentration against cancer cells (IC50) was determined.
as §3, §4
Background: In SRB staining, fixed cells bind dye roughly in proportion to their protein.

The subject of data set [6] is human breast cancer cell lines (MCF-7 cells). Nature of the data set: In vitro antitumor activity, MTT method. It is filed as cell-based. The settings on record: for pIC50: Homo sapiens, read-out: Cytotoxic Activity IC50; for SI = CC50 (normal cell line L-02)/IC50 (tumor cell line): MCF-7 cell line vs L-02. On the procedure: as §1, §2, §3, §4
Data set [7] has as its system colon cancer HCT-116 transplantation tumors. Description: In vivo antitumor test on transplantation tumors in nude mice. The arrangement: species or system BALB/C (nu/nu) nude mice. The conditions noted are these: HCT-116, 14 days, Docetaxel 5 mg/kg intravenously every other day, Compound 2 7.5 mg/kg intraperitoneally daily; for Tumor Weight: X ± S; for Inhibition Rate % (tumor inhibition rate): vs negative control. Here is the method: An in vivo antitumor test for Compound 2 was conducted on in vivo transplantation tumors from nude mice experiencing colon cancer HCT-116.
Laboratory mice: BALB/C, (nu/nu) nude mice, from 18 to 20 g in weight, male; purchased from BEIJING HFK BIOSCIENCE Co., LTD.; License No.: SCXK (Jing)-2014-0004.
Positive drug: Docetaxel, dissolved with Tween DMSO as a solvent and formulated into 9 mg/mL solution for service; diluted with normal saline.
Test drug: Compound 2, 10 mg/mL of stock solution being dissolved with DMSO, diluted with normal saline till the concentration was 0.75 mg/mL, and the administration volume was 0.1 mL/10 g body weight.
(§5) A cell suspension of human colon cancer cell line HCT-116 at a concentration of 30 million/mL was formulated in a 5 A medium containing 10% fetal bovine serum. After conventional disinfection, the cell suspension was inoculated subcutaneously into the armpits of the right forelimbs of the mice at a dose of 0.2 ml for each. The mice were not administered until the tumors had grown to an average volume of about 100 mm^3. Positive drugs, compounds, and negative control groups were arranged. The dosages were 5 mg/kg of Docetaxel (positive), and 7.5 mg/kg of Compound 2. Routes of administration were as follows: Docetaxel was intravenously administered every other day; Compound 2 was intraperitoneally injected daily; the negative control group was intraperitoneally injected with isometric normal saline. The mice were administered for 14 days, during which the mice were weighed daily and the variation trends of body weights of the mice were calculated. The mice were killed 24 hours after the last administration. Their tumor tissues were dissected, the tumor mass was weighed, and the tumor inhibition rate was calculated. The equation for calculating the tumor inhibition rate was as follows: […]
(§6) Statistical analysis: The SPSS 13.0 statistical software was used for data processing. The resulting data were marked with X±S. The data from each group were analyzed by t test, and the P value was used to indicate difference between groups.

Data set [8] is described as follows: Spleen index, body weight and behavioral observation of mice in the in vivo antitumor test. Further details: species or system BALB/C (nu/nu) nude mice. The conditions noted are these: nude mice; for effect on body weight of the mice / effect on spleen index of mice (in words): 14 days administration; for Spleen Index (100 × spleen mass/body mass): 14 days, Docetaxel (10 mg/kg as printed in Table 11), Compound 2 7.5 mg/kg. Here is the method: as §5, with “The dosages were 5 mg/kg of Docetaxel (positive), and 7.5 mg/kg of Compound 2.” left out
In the meantime, the spleens were removed from the mice, and the capsules were peeled off. The mass of the spleens of the mice was recorded respectively, and the spleen indices were calculated by the following equation:
spleen index=100×spleen mass/body mass.
as §6

Setting [9] is: HCT-116 cell line, SRB, 72 hours.

As a reminder, the pIC50 is −log10 of the IC50, conventionally taken in molar units. In general, CC50 refers to the concentration at which the toxic effect on the cells reaches its halfway point. Low readings indicate harm at low concentration, high ones better tolerance by the cells.

pIC50: −log10 of the molar value. Like-named read-outs stand apart in the source and are kept apart here.

For `C[C@@H]1O[C@@H](Oc2cc(/C=N/O)nc(-c3ccccn3)c2)[C@H](O)[C@H](O)[C@H]1O` [Compound 1], the “SI = CC50 (normal cell line L-02)/IC50 (tumor cell line)” value (“SI = CC50 (normal cell line L-02)/IC50” below) in data set [1] is given as 3.1; in data set [2], 10.5; in data set [3] it was 2.6; in data set [5], 40.4. For the same compound, the pIC50 is 5.05 in data set [1] (Hela cell line, MTT, 72 hours); 5.57 in data set [2] (HepG2 cell line, MTT, 72 hours); 4.97 in data set [3] (Jurkat cell line); 6.15 in data set [5] (setting [9]). The CC50 at 72 h in data set [4] (L-02 normal liver cells) was determined as 28.3 µM.
In the case of `COc1cc(/C=N/O)nc(-c2ccccn2)c1` [Compound 2], the pIC50 in data set [6] (MCF7, 72 h) was 6.00; in data set [1] (HeLa, 72 h), 7.00; in data set [2] (HepG2, 72 h), 6.70; in data set [3] (Jurkat) it was 6.70; in data set [5] (HCT-116, 72 h) it was 6.52. The “SI = CC50 (normal cell line L-02)/IC50” value in data set [6] was found to be 3.9; in data set [1] it was 39; in data set [2], 19.5; in data set [3] it was 19.5; in data set [5] it was 13.0. The “Tumor Weight” value in data set [7] is given as 0.59 ± 0.33 g. Further, in data set [7], the “Inhibition Rate % (tumor inhibition rate)” value was 42.46%. Moreover, it took 3.9 µM to reach half-maximal cytotoxicity in data set [4] (CC50 at 72 h). Moreover, in data set [8], the “effect on body weight of the mice” value is reported as “not adversely affected”. In data set [8], the “effect on spleen index of mice (in words)” value is “no effect”. Further, in data set [8], the “Spleen Index (100 × spleen mass/body mass)” value was 0.45 ± 0.09. Further, the “behavioral observation: adverse effects” value in data set [8] (within 14 days after administration, 7.5 mg/kg intraperitoneally daily) is reported as “no obvious adverse effects such as allergy were observed”.
In data set [4], `COc1cc(/C=N/O)nc(-c2ccccn2)c1O` [Compound 4] registered a half-maximal cytotoxic concentration (CC50) at 72 h of 1.7 µM. Further, in data set [5], the “SI = CC50 (normal cell line L-02)/IC50” value came to 1.2. Besides, the pIC50 in data set [5] (HCT-116, 72 h) is 5.85.
For the compound `COc1cc(/C=N/O)nc(-c2ccc(F)cn2)c1` [Compound 5], the “SI = CC50 (normal cell line L-02)/IC50” value in data set [1] came to 1.7. In data set [1] (Hela cell line, MTT, 72 hours), the pIC50 is 5.36. Also, the CC50 at 72 h in data set [4] (L-02 normal liver cells) stood at 7.5 µM.
Regarding `COc1cc(C=O)nc(-c2ccccn2)c1` [Compound 6], the pIC50 is 4.92 in data set [6] (MCF7, MCF-7 cell line, MTT, 72 hours); 4.71 in data set [1] (Hela cell line, MTT, 72 hours); 4.84 in data set [3] (Jurkat cell line); 5.22 in data set [5] (setting [9]). The “SI = CC50 (normal cell line L-02)/IC50” value in data set [6] amounted to 2.6; in data set [1] it was 1.6; in data set [3], 2.2; in data set [5], 5.2. The same compound returned a CC50 at 72 h in data set [4] (L-02 normal liver cells) of 31.4 µM.
Regarding `C[C@H]1O[C@H](Oc2cc(/C=N/O)nc(-c3ccccn3)c2)[C@H](O)[C@@H](O)[C@@H]1O` [Compound 7], the “SI = CC50 (normal cell line L-02)/IC50” value in data set [1] stood at 23.8; in data set [2], 6.0; in data set [3] it was 45.8; in data set [5] it was 27.0. The negative logarithm of the IC50 (pIC50) is 5.60 in data set [1] (Hela cell line, MTT, 72 hours); 5.00 in data set [2] (HepG2 cell line, MTT, 72 hours); 5.89 in data set [3] (Jurkat cell line); 5.66 in data set [5] (setting [9]). Half-maximal cytotoxicity in data set [4] (L-02 normal liver cells) (CC50 at 72 h) was put at 59.5 µM.
Regarding `CC(=O)O[C@@]12CO[C@@H]1C[C@H](O)[C@@]1(C)C(=O)[C@H](O)C3=C(C)[C@@H](OC(=O)[C@H](O)[C@@H](NC(=O)OC(C)(C)C)c4ccccc4)C[C@@](O)([C@@H](OC(=O)c4ccccc4)[C@H]21)C3(C)C` [Docetaxel, reference compound], in data set [7], the “Tumor Weight” value came out at 0.13 ± 0.07 g and the “Inhibition Rate % (tumor inhibition rate)” value is listed as 87.39%. For the same compound, in data set [8], the “effect on body weight of the mice” value is on record as “decreased”, the “effect on spleen index of mice (in words)” value is on record as “decreased” and the “Spleen Index (100 × spleen mass/body mass)” value is given as 0.25 ± 0.11.

For the origin of these results see patent publication US20190322638A1, “DIPYRIDYL ALKALOID, PREPARATION METHOD THEREFOR AND USE THEREOF” (OCEAN UNIVERSITY OF CHINA, priority 2016, published 2019).
